Measurements published in patent US20180002288A1, “USE OF PICOLINAMIDES AS FUNGICIDES” (DOW AGROSCIENCES LLC, priority 2014, published 2018).
Read-outs that look alike come from different tables or passages of the source.

Legend:
[1] = test system: Zymoseptoria tritici; experiment: Leaf Blotch of Wheat fungicidal activity (SEPTTR); type: in vivo; conditions: for pest or weed control at 121.5 g/ha: Low Volume Cereal Activity at 121.5 g/Ha; for pest or weed control at 100 ppm: wheat, high volume
Protocol: (§1) All fungicides were evaluated using the aforementioned method for their activity vs. all target diseases, unless stated otherwise. Wheat leaf blotch and brown rust activity were also evaluated using track spray applications, in which case the fungicides were formulated as EC formulations, containing 0.1% Trycol 5941 in the spray solutions. Wheat plants (variety Yuma) were grown from seed in a greenhouse in 50% mineral soil/50% soil-less Metro mix until the first leaf was fully emerged, with 7-10 seedlings per pot. These plants were inoculated with an aqueous spore suspension of Zymoseptoria tritici either prior to or after fungicide treatments. After inoculation the plants were kept in 100% relative humidity (one day in a dark dew chamber followed by two to three days in a lighted dew chamber at 20° C.) to permit spores to germinate and infect the leaf. The plants were then transferred to a greenhouse set at 20° C. for disease to develop. When disease symptoms were fully expressed on the 1st leaves of untreated plants, infection levels were assessed on a scale of 0 to 100 percent disease severity. Percent disease control was calculated using the ratio of disease severity on treated plants relative to untreated plants.

[2] = test system: Puccinia triticina; experiment: Wheat Brown Rust fungicidal activity (PUCCRT); type: in vivo; conditions: for pest or weed control at 121.5 g/ha: Low Volume Cereal Activity at 121.5 g/Ha; for pest or weed control at 100 ppm: wheat, high volume
Protocol: as §1, with “plants. Wheat plants (variety Yuma) were grown from seed in a greenhouse in 50% mineral soil/50% soil-less Metro mix until the first leaf was fully emerged, with 7-10 seedlings per pot. These plants were inoculated with an aqueous spore suspension of Puccinia triticina either prior to or after fungicide treatments. […] The plants were then transferred to a greenhouse set at 24° C. for disease to develop. Fungicide formulation, application and disease assessment followed the procedures as described in the Example A.” for “plants.”

[3] = 24 h, 1 Day Protectant, read-out: SEPTTR 1DP (Wheat Leaf Blotch, 1 Day Protectant)
[4] = 72 h, 3 Day Curative, read-out: SEPTTR 3DC (Wheat Leaf Blotch, 3 Day Curative)
[5] = 24 h, 1 Day Protectant, read-out: PUCCRT 1DP (Wheat Brown Rust, 1 Day Protectant)
[6] = 72 h, 3 Day Curative, read-out: PUCCRT 3DC (Wheat Brown Rust, 3 Day Curative)
[7] = 24 h, 1 Day Protectant, read-out: SEPTTR 1DP % Control rating
[8] = 72 h, 3 Day Curative, read-out: SEPTTR 3DC % Control rating
[9] = 24 h, 1 Day Protectant, read-out: PUCCRT 1DP % Control rating
[10] = 72 h, 3 Day Curative, read-out: PUCCRT 3DC % Control rating

Compound	pest or weed control at 121.5 g/ha [1, 3] [%]	pest or weed control at 121.5 g/ha [1, 4] [%]	pest or weed control at 121.5 g/ha [2, 5] [%]	pest or weed control at 121.5 g/ha [2, 6] [%]	pest or weed control at 100 ppm [1, 7] [%]	pest or weed control at 100 ppm [1, 8] [%]	pest or weed control at 100 ppm [2, 9] [%]	pest or weed control at 100 ppm [2, 10] [%]
COc1ccnc(C(=O)N[C@@H](C)C(=O)O[C@@H](C)[C@H](Oc2ccc(C)cc2Cl)c2ccccc2)c1OCOC(C)=O [Example 244]	> 80	> 80	> 80	< 80				
COc1ccnc(C(=O)N[C@@H](C)C(=O)O[C@@H](C)[C@H](Oc2ccc(F)cc2)c2ccc(F)cc2)c1OCOC(C)=O [Example 254]	> 80	> 80	> 80	> 80				
COc1cc(F)ccc1[C@@H](OCC(F)F)[C@H](C)OC(=O)[C@H](C)NC(=O)c1nccc(OC)c1O [Example 288]					< 80	> 80	> 80	> 80
COc1ccnc(C(=O)N[C@@H](C)C(=O)O[C@@H](C)[C@H](Oc2ccc(Cl)cc2Cl)c2ccccc2)c1O [Example 120]					> 80	< 80	> 80	< 80
COc1ccnc(C(=O)N[C@@H](C)C(=O)O[C@@H](C)[C@H](Oc2cc(F)cc(Cl)c2)c2ccccc2)c1OCOC(C)=O [Example 206]	> 80	> 80	> 80	< 80				
COc1ccnc(C(=O)N[C@@H](C)C(=O)O[C@@H](C)[C@H](Oc2ccc(C)cc2)c2ccc(F)cc2)c1OC(C)=O [Example 247]	> 80	> 80	> 80	> 80				
COc1ccnc(C(=O)N[C@@H](C)C(=O)O[C@@H](C)[C@@H](OC)c2ccccc2)c1O [Example 140]					< 0	< 80	< 80	> 80
COc1ccnc(C(=O)N[C@@H](C)C(=O)O[C@@H](C)[C@@H](Oc2ccc(Cl)cc2Cl)c2ccccc2)c1OC(=O)C(C)C [Example 215]	< 80	< 80	< 80	< 80				
COc1ccnc(C(=O)N[C@@H](C)C(=O)O[C@@H](C)[C@H](Oc2ccccc2)c2ccc(F)cc2F)c1OC(C)=O [Example 251]	> 80	> 80	> 80	> 80				
COc1ccnc(C(=O)N[C@@H](C)C(=O)O[C@@H](C)[C@H](Oc2ccccc2)c2ccc(F)cc2Oc2ccccc2)c1O [Example 178]					> 80	> 80	> 80	< 80
COc1ccnc(C(=O)N[C@@H](C)C(=O)O[C@@H](C)[C@H](OCC2CC2)c2ccccc2)c1O [Example 113]					> 80	> 80	> 80	< 80
COc1ccnc(C(=O)N[C@@H](C)C(=O)O[C@@H](C)[C@@H](Oc2ccc(Cl)cc2Cl)c2ccccc2)c1OCOC(C)=O [Example 216]	> 80	> 80	> 80	< 80				
COc1ccnc(C(=O)N[C@@H](C)C(=O)O[C@@H](C)[C@H](Oc2ccc(C)cc2Cl)c2ccc(F)cc2)c1O [Example 150]					> 80	< 80	> 80	> 80
COc1ccnc(C(=O)N[C@@H](C)C(=O)O[C@@H](C)[C@H](Oc2ccc(C)cc2)c2ccc(F)cc2)c1OCOC(C)=O [Example 249]	> 80	> 80	> 80	> 80				
COc1ccnc(C(=O)N[C@@H](C)C(=O)O[C@@H](C)[C@H](Oc2ccccc2)c2ccc(F)cc2OCC(F)F)c1O [Example 176]					> 80	> 80	> 80	> 80
COc1ccnc(C(=O)N[C@@H](C)C(=O)O[C@@H](C)[C@H](Oc2cc(F)ccc2F)c2ccccc2)c1OCOC(C)=O [Example 191]	< 0	< 80	> 80	> 80				
COc1ccnc(C(=O)N[C@@H](C)C(=O)O[C@@H](C)[C@H](Oc2ccc(C(F)(F)F)cc2)c2ccccc2)c1O [Example 125]					< 80	< 80	< 80	< 0
COc1ccnc(C(=O)N[C@@H](C)C(=O)O[C@@H](C)[C@@H](Oc2ccccc2)c2ccccc2)c1O [Example 135]					> 80	> 80	> 80	< 0
COc1cc(C)ccc1[C@@H](Oc1ccccc1)[C@H](C)OC(=O)[C@H](C)NC(=O)c1nccc(OC)c1O [Example 172]					> 80	> 80	> 80	> 80
COc1ccnc(C(=O)N[C@@H](Cc2ccccc2)C(=O)O[C@@H](C)[C@H](Oc2cccc(F)c2)c2ccccc2)c1O [Example 128]					< 0	< 80	> 80	< 80
COc1ccnc(C(=O)N[C@@H](C)C(=O)O[C@@H](C)[C@H](Oc2ccc(C)cc2Cl)c2ccccc2)c1O [Example 149]					> 80	> 80	> 80	> 80
CC[C@H](NC(=O)c1nccc(OC)c1OCOC(C)=O)C(=O)O[C@@H](C)[C@H](Oc1cc(F)cc(Cl)c1)c1ccccc1 [Example 208]	> 80	> 80	> 80	< 80				
COc1ccnc(C(=O)N[C@@H](C)C(=O)O[C@@H](C)[C@H](Oc2ccccc2)c2ccc(C)cc2F)c1O [Example 164]					> 80	> 80	> 80	> 80
COc1ccnc(C(=O)N[C@@H](C)C(=O)O[C@@H](C)[C@@H](OCC2CC2)c2ccccc2)c1O [Example 142]					< 80	< 80	> 80	> 80
COc1ccnc(C(=O)N[C@@H](C)C(=O)O[C@@H](C)[C@H](Oc2ccc(C)cc2)c2ccccc2)c1O [Example 151]					> 80	< 80	> 80	> 80
COc1ccnc(C(=O)N[C@@H](C)C(=O)O[C@@H](C)[C@@H](Oc2ccccc2)c2cccs2)c1OC(C)=O [Example 210]	< 80	< 80	< 80	< 80				
COc1ccnc(C(=O)N[C@@H](C)C(=O)O[C@@H](C)C(Oc2ccccc2)c2nccs2)c1OC(C)=O (stereo partly shown) [Example 212]	< 0	< 80	< 80	> 80				
COc1ccnc(C(=O)N[C@@H](C)C(=O)O[C@@H](C)[C@H](Oc2cccc(F)c2)c2cccc(-c3ccccc3)c2)c1OC(C)=O [Example 223]	> 80	> 80	> 80	< 80				
